Source: US10519111B2, “UV absorbing compounds, compositions comprising same and uses thereof” (CORAL SUNSCREEN PTY LTD, priority 2013, dated 2019)
Blank lines part the entries; values can stand above or below the compound they belong to.

What was measured:
[1] = UV absorption properties (λmax, molar extinction coefficient ε, efficiency E 1%, 1 cm); assay type: physicochemical
[2] = Critical wavelength (λcrit), approximate in-house measurement; assay type: physicochemical
Text: As the precise test for critical wavelength was unable to be replicated exactly by the inventors due to the need for specialist equipment and a specific calibration of the spectrophotometer, these values are only approximate to a degree. […] This represents a highly useful result and so, compounds based around this benzoyl substitution pattern shown, are especially preferred.

[3] = Table 9, C3-trifluoroacetylated N-aryl enamines
[4] = Table 13B, miscellaneous compounds
[5] = Table 13B, values in order of the λmax values
[6] = Table 13B, values in order of the λmax values, in M-1 cm-1
[7] = Table 6B, N-tert-butyl compounds
[8] = Table 4, N-aryl enamines with isocyanates
[9] = Table 10, bis and mono enamine compounds
[10] = Table 3, compounds from isocyanates or isothiocyanates
[11] = Table 7, values in order of the λmax values

SMILES: COc1ccc(N2C=C(C(=O)C3CCCC3=O)C(C)(C)CC2)cc1 (stereo not shown) [drawing 130]
E (1%, 1 cm) ([1]; Table 8b): 938 | λmax ([1]; Table 8b, N-phenyl compounds): 332 nm | ε ([1]; Table 8b, in M-1 cm-1): 30675 | λcrit ([2]; Table 8b): 358 nm

SMILES: C=CC(=O)C1=CN(c2ccc(C)cc2)CCC1(C)C
λmax [1, 4]: 348 nm | E (1%, 1 cm) [1, 5]: 1045 | ε [1, 6]: 26657 | λcrit ([2]; Table 13B): 377 nm

SMILES: Cc1ccc(N2C=CC(C)(C)CC2)cc1
E (1%, 1 cm) ([1]; Table 10): 1036 | λmax [1, 9]: 278 nm | ε ([1]; Table 10, in M-1 cm-1): 20823 | λcrit ([2]; Table 10): 321 nm

SMILES: CC1(C)CCN(C(C)(C)C)C=C1C(=S)Nc1ccccc1 [drawing 60]
Ε (1%, 1 cm) ([1]; Table 3): 691 | λmax [1, 10]: 363 nm | ε ([1]; Table 3, in M-1 cm-1): 20881 | λcrit ([2]; Table 3): 387 nm

SMILES: Cc1ccc(N2C=C(C(=O)Nc3ccccc3)C(C)(C)CC2)cc1 [drawing 69]
Ε (1%, 1 cm) ([1]; Table 4): 1060 | λmax [1, 8]: 323 nm | ε ([1]; Table 4, in M-1 cm-1): 33948 | λcrit ([2]; Table 4): 342 nm

SMILES: CC(C)(C)Oc1ccc(C(=O)C2=CN(C(C)(C)C)CCC2(C)C)cc1 [drawing 96]
E (1%, 1 cm) ([1]; Table 6B): 949 | λmax [1, 7]: 317 nm | ε ([1]; Table 6B, in M-1 cm-1): 32556 | λcrit ([2]; Table 6B): 344 nm

SMILES: CC1(C)CCN(C(C)(C)C)C=C1C(=O)/C=C/c1ccccc1 [drawing 93]
E (1%, 1 cm) ([1]; Table 6B): 781 | λmax [1, 7]: 360 nm | ε ([1]; Table 6B, in M-1 cm-1): 23198 | λcrit ([2]; Table 6B): 385 nm

SMILES: CC(C)=CCCC(C)CC(=O)C1=CN(c2ccc(N3C=C(C(=O)CC(C)CCC=C(C)C)C(C)(C)CC3)cc2)CCC1(C)C (stereo not shown) [drawing 212]
λmax [1, 4]: 359 nm | E (1%, 1 cm) [1, 5]: 690 | ε [1, 6]: 41400 | λcrit ([2]; Table 13B): 379 nm

SMILES: CC1(C)CCN(c2ccc(C(C)(C)C)cc2)C=C1C(=O)Nc1ccccc1 [drawing 70]
Ε (1%, 1 cm) ([1]; Table 4): 987 | λmax [1, 8]: 324 nm | ε ([1]; Table 4, in M-1 cm-1): 35759 | λcrit ([2]; Table 4): 342 nm

SMILES: Cc1cc(/C=C/C(=O)C2=CN(C(C)(C)C)CCC2(C)C)c(C)cc1Br
λmax [1, 4]: 360 nm | E (1%, 1 cm) [1, 5]: 532 | ε [1, 6]: 21473 | λcrit ([2]; Table 13B): 386 nm

SMILES: C=C/C=C/C(=O)C1=CN(CC(C)C)CCC1(C)C [drawing 117]
λmax ([1]; Table 7, unsaturated compounds): 352 nm | E (1%, 1 cm) [1, 11]: 730 | ε [1, 11]: 18000 M⁻¹ cm⁻¹ | λcrit ([2]; Table 7): 381 nm

SMILES: Cc1ccc(N2C=C(C(=O)C(F)(F)F)C(C)(C)CC2)cc1 [drawing 142]
E (1%, 1 cm) ([1]; Table 9): 1465 | λmax [1, 3]: 337 nm | ε ([1]; Table 9, in M-1 cm-1): 43513 | λcrit ([2]; Table 9): 361 nm

SMILES: CC(C)(C)CC(C)(C)N1C=C(C(=O)/C=C/c2ccc(Br)cc2)C(C)(C)CC1
λmax [1, 4]: 360 nm | E (1%, 1 cm) [1, 5]: 437 | ε [1, 6]: 18987 | λcrit ([2]; Table 13B): 386 nm

SMILES: Cc1cc(-c2ccc(N3C=C(C(=O)C(F)(F)F)C(C)(C)CC3)c(C)c2)ccc1N1C=CC(C)(C)C(C(=O)C(F)(F)F)=C1
λmax [1, 4]: 326 nm | E (1%, 1 cm) [1, 5]: 859 | ε [1, 6]: 50670 | λcrit ([2]; Table 13B): 378 nm

SMILES: CCC(=O)C1=CN(c2ccc(-c3ccc(N4C=C(C(=O)CC)C(C)(C)CC4)c(C)c3)cc2C)CCC1(C)C
λmax [1, 4]: 328 nm | E (1%, 1 cm) [1, 5]: 1234 | ε [1, 6]: 63191 | λcrit ([2]; Table 13B): 349 nm

Next, values leading:

E (1%, 1 cm) ([1]; Table 9): 774 | λmax [1, 3]: 339 nm | ε ([1]; Table 9, in M-1 cm-1): 24235 | λcrit ([2]; Table 9): 365 nm
SMILES: COc1ccc(N2C=C(C(=O)C(F)(F)F)C(C)(C)CC2)cc1 [drawing 140]

λmax [1, 4]: 383 nm | E (1%, 1 cm) [1, 5]: 355 | ε [1, 6]: 23457 | λcrit ([2]; Table 13B): 388 nm
SMILES: CCOC(=O)c1cc(/C=C/C(=O)C2=CN(C(C)(C)C)CCC2(C)C)c(C(=O)OCC)cc1/C=C/C(=O)C1=CN(C(C)(C)C)CCC1(C)C

E (1%, 1 cm) ([1]; Table 6B): 793 | λmax [1, 7]: 333 nm | ε ([1]; Table 6B, in M-1 cm-1): 24966 | λcrit ([2]; Table 6B): 361 nm
SMILES: CN(C)c1ccc(C(=O)C2=CN(C(C)(C)C)CCC2(C)C)cc1 [drawing 95]

Ε (1%, 1 cm) ([1]; Table 4): 1054 | λmax [1, 8]: 331 nm | ε ([1]; Table 4, in M-1 cm-1): 68095 | λcrit ([2]; Table 4): 354 nm
SMILES: CC1(C)CCN(c2ccc(C(C)(C)C)cc2)C=C1C(=O)Nc1ccc(NC(=O)C2=CN(c3ccc(C(C)(C)C)cc3)CCC2(C)C)cc1 [drawing 68]

λmax [1, 4]: 334 nm | E (1%, 1 cm) [1, 5]: 1121 | ε [1, 6]: 58063 | λcrit ([2]; Table 13B): 353 nm
SMILES: CCC(=O)C1=CN(c2ccc(Oc3ccc(N4C=C(C(=O)CC)C(C)(C)CC4)cc3)cc2)CCC1(C)C

E (1%, 1 cm) ([1]; Table 10): 977 | λmax [1, 9]: 305 nm | ε ([1]; Table 10, in M-1 cm-1): 18164 | λcrit ([2]; Table 10): 327 nm
SMILES: CC1(C)C=CN(c2ccncc2)C=C1

Ε (1%, 1 cm) ([1]; Table 3): 1174 | λmax [1, 10]: 308 nm | ε ([1]; Table 3, in M-1 cm-1): 59763 | λcrit ([2]; Table 3): 329 nm
SMILES: Cc1ccc(NC(=O)C2=CN(C(C)(C)C)CCC2(C)C)cc1NC(=O)C1=CN(C(C)(C)C)CCC1(C)C [drawing 62]
